Ends that are not written are not given here.
Tested on: crushed sciatic nerve
Experiment: Sensorimotor function test (sciatic nerve regeneration assay, foot-flick response to thermal pain)
Assay type: in vivo, rat
Details: s.c. every 24 hr for approximately 20-25 days; head prints only 'μG/24 HRS'; vs 0.9% NaCl control
Protocol: Female, Sprague-Dawley rats (Charles River Breeding Labs) were used at an age of 7-8 weeks (120-140 g). Under ether anesthesia, the right sciatic nerve was carefully exposed and crushed with constant pressure, hemostatic forceps for 30 sec prior to closure and suturing of the incision. After surgery, the animals were randomly assigned to treatment groups of 10. The test peptides were administered s.c. in 0.9% NaCl in a vol of 0.1 ml. NaCl (0.9%) served as the control. Injections were started immediately after surgery and given every 24 hr thereafter for approximately 20-25 days. The criterion of sciatic nerve regeneration was based on the recovery of the foot-flick response to thermal pain. Beginning 48 hr after surgery, the rats were tested five days a week for the ability to withdraw, from a heat source, the paw innervated by the crushed nerve. All sensorimotor testing was performed between 1:00 and 3:00 p.m. Specifically, the rat was immobilized by wrapping in a towel, and the sole of the lesioned limb was placed over the aperture of a modified d'Amour apparatus. The time required to withdraw the foot was recorded to the nearest 0.1 of sec using a digital stopwatch. If no response occurred by 5 sec, the test was terminated to avoid tissue damage. The observe measuring the foot-flick response was blind to the treatment group being tested. All animals were acclimatized to the testing procedure prior to surgery. Baseline values were obtained by determining the response time for the unlesioned limb.

Compound | % Reduction of Recovery Time
AQYFRWG-NH2 [BIM-22016, L--Ala--Gln--Tyr--Phe--Arg--Trp--Gly--NH2] | 13%
CCCC[C@H](N)C(=O)N[C@@H](CCC(N)=O)C(=O)N[C@@H](Cc1c[nH]cn1)C(=O)N[C@@H](Cc1ccccc1)C(=O)N[C@@H](CCCNC(=N)N)C(=O)N[C@@H](Cc1c[nH]c2ccccc12)C(=O)NCC(N)=O [BIM-22010, NLeu--Gln--His--Phe--Arg--Trp--Gly--NH2] | 13%
